Results on eight molecules are retold here after US11958865B1, “Leucine-rich repeat kinase 2 (LRRK2) inhibitors” (H. Lundbeck A/S, priority 2022, dated 2024).

Series [1] in a line: Hepatocyte intrinsic clearance assay. The series is classed as in vitro ADME, Human. Particulars: pooled donor, cryopreserved hepatocytes, pH 7.4; human hepatocytes 1×10^6/mL; 0.05 μM; 2 h at 37° C. On the procedure: Test compounds (final concentration 0.05 μM, 0.05% organic) were incubated for 2 h at 37° C., with shaking, in supplemented Leibovitz L-15 media (pH 7.4) containing commercially sourced, pooled donor, cryopreserved hepatocytes (final concentration 1×10^6 hepatocytes/mL). The CLint reactions (350 μL) were initiated by addition of test compound. Aliquots (25 μL) were taken at 1, 5, 10, 15, 30, 60, 90 and 120 minutes and then protein crashed with ice-cold acetonitrile containing internal standard (150 μL) then centrifuged (1960 g for 20 minutes at 4° C.). Supernatant was diluted (1:4) with deionized water then analyzed by liquid chromatography (LC)-tandem mass spectrometry (MS/MS).

Series [2] in a line: Rat brain disposition after oral gavage. Particulars: male, Sprague-Dawley, oral 5 mg/kg, mean ± stdev. The series is classed as in vivo, male Sprague-Dawley rats. On the procedure: Brain disposition was evaluated in male Sprague-Dawley rats (n=3, standard body weight). Briefly, test compound was formulated as a simple suspension (0.5% HPMC in water) then administered by oral gavage (10 mg/kg, 10 mL/kg or 5 mg/kg, 10 mL/kg). At the designated time point (0.5 or 1 h post dose) rats were sacrificed and terminal blood and brain samples taken. Isolated plasma and brain homogenates were extracted by standard protein precipitation in acetonitrile, containing internal standard. Diluted extracts were analyzed by liquid-chromatography coupled with tandem mass spectrometry detection (LC-MS/MS) using a bioanalytical method. Concentrations of test compound in plasma and brain were quantified against matrix matched calibration standards. The total plasma and brain concentration time data are presented in Table 4 alongside the calculated brain Kp (total brain concentration:total plasma concentration ratio).
The total brain-to-plasma partition coefficient (brain Kp) is given by the ratio of the total brain concentration and total plasma concentration of the compound according to the equation below: […]
Based on the measured rat fuplasma and fubrain values and the brain Kp the unbound brain-to-plasma partition coefficient (brain Kp,uu for each compound was calculated. The Kp,uu parameter describes the extent of brain penetration for each compound, i.e. the parameter gives a direct quantitative description of how the blood-brain barrier (BBB) handles the compounds regarding passive transport and active influx/efflux. The brain Kp,uu is given by the equation below: […]

The nature of series [3]: Hepatic microsomal intrinsic clearance assay. The series is classed as in vitro ADME. Particulars: liver microsomes 0.5 mg/mL, 1 μM, NADPH, 1 hour at 37° C., LLOQ 0.36 L/h/kg; for CLint scaled at 1 μM: pooled liver microsomes, pH 7.4. On the procedure: Compounds (final concentration 1 μM, 1% organic) of the invention were incubated for 1 hour at 37° C., with shaking, in phosphate buffer (pH 7.4) containing commercially sourced pooled liver microsomes (final concentration 0.5 mg/mL). […] At designated time points (0, 5, 10, 20, 30 and 60 minutes) ice-cold acetonitrile containing internal standard (300 μL) was added to an incubation well to stop the reaction then mixed and centrifuged (3220 g for 20 minutes at 4° C.). Supernatant was diluted (1:4) with deionized water then analyzed by LC-MS/MS.

Series [4] in a line: Fraction unbound in rat plasma and brain homogenate by equilibrium dialysis. The note with it: 1 μM, equilibrium dialysis 5 h at 37° C.; for fubrain (% free): rat brain homogenate; for fuplasma (% free): rat plasma. The series is classed as in vitro ADME, male Sprague-Dawley rat. On the procedure: The fraction of unbound compound in male Sprague-Dawley rat plasma (fuplasma) and brain homogenate (fubrain) were determined by equilibrium dialysis using 96-well HTD-dialysis plates with dialysis membranes (molecular weight cut off 12-14 KDa). One side of the HTD-dialysis plate was loaded with matrix (plasma or brain homogenate) and the other side with buffer (100 mM sodium phosphate buffer, pH 7.4). Test compounds were dissolved in DMSO then spiked (5 μL of 0.2 mM) into blank (995 μL) plasma or diluted brain homogenate (1:4 ratio in phosphate buffer) giving a final nominal concentration 1 μM (≤0.5% DMSO). The matrices were loaded into respective chambers and equilibrated against phosphate buffer for 5 h at 37° C. (in a humidified air incubator with 5% CO2 with shaking). Samples from both chambers (buffer and plasma or brain homogenate) were aliquoted to fresh 96-well polypropylene plates then matrix matched using an equal volume of opposite blank matrix before extraction with cold solvent (3 volumes acetonitrile) containing an appropriate bioanalytical internal standard. After centrifugation (20 min, 3200 g, 4° C.) the supernatants were diluted with appropriate volumes of water and compound concentrations were quantified by LC/MS-MS against matrix matched calibration standards. The fuplasma and fubrain were calculated according to equation 4 below.
[formula] Where [F] is the compound concentration on the buffer (receiver) side of the membrane; [T] is the compound concentration on the plasma or brain (donor) side of the membrane; D is the matrix dilution factor which is determined as D=4 for brain matrix and D=1 for plasma matrix in these assays.

The mark [5] stands for this setting: brain, n=3, read-out: Total brain concentration.
Setting [6] is: plasma, n=3, read-out: Total plasma concentration.

Read-outs that look alike come from different tables or passages of the source. Some results are limits rather than exact numbers.

The molecule `Cc1ncc(F)cc1-n1nc2c(c1C)Nc1ncc3c(Cl)nn(c3n1)CCCO2` [Example 10, 8-Chloro-2-(5-fluoro-2-methylpyridin-3-yl)-3-methyl-2,4,12,13-tetrahydro-11H-5,7-(azenometheno)dipyrazolo[3,4-b:5′,1′-g][1]oxa[4,6,8]triazacycloundecine] gave an intrinsic clearance (CLint scaled) at 0.05 μM in series [1] of 0.33 L/h/kg. Also, in series [2] (brain, n=3), the Kp at 1 h was 2.2 ± 0.3 and the Kp uu at 1 h was determined as 0.89 ± 0.14. Further, the concentration at 1 h in series [2] (setting [5]) came to 524 ± 79 ng/g. In series [2] (setting [6]), the concentration at 1 h stood at 0.246 ± 0.061 µg/mL. Also, the CLint scaled at 1 μM in series [3] is 1.2 L/h/kg. For the same molecule, in series [4], the “fubrain (% free)” value was 9.3 % free and the “fuplasma (% free)” value was determined as 22.7 % free.

Molecule `[2H]C([2H])([2H])c1c2c(nn1-c1ccc(C)nc1C)OCCCn1nc(Cl)c3cnc(nc31)N2` [Example 25, 8-Chloro-2-(2,6-dimethylpyridin-3-yl)-3-(methyl-d3)-2,4,12,13-tetrahydro-11H-5,7-(azenometheno)dipyrazolo[3,4-b:5′,1′-g][1]oxa[4,6,8]triazacycloundecine] gave an intrinsic metabolic clearance (CLint scaled) at 0.05 μM in series [1] of 1.19 L/h/kg. Further, in series [3], the CLint scaled at 1 μM is under 0.36 L/h/kg.

With `[2H]C([2H])([2H])c1c2c(nn1-c1cc(F)cnc1OC)OCCCn1nc(Cl)c3cnc(nc31)N2` (single isomer, unassigned) [Example 29, 8-Chloro-2-(5-fluoro-2-methoxypyridin-3-yl)-3-(methyl-d3)-2,4,12,13-tetrahydro-11H-5,7-(azenometheno)dipyrazolo[3,4-b:5′,1′-g][1]oxa[4,6,8]triazacycloundecine], the CLint scaled at 0.05 μM in series [1] is 0.93 L/h/kg. In series [3], this molecule gave a CLint scaled at 1 μM of 1.28 L/h/kg.

In the case of `Cc1ncccc1-n1nc2c(c1C)Nc1ncc3c(Cl)nn(c3n1)CCCO2` [Example 3, 8-Chloro-3-methyl-2-(2-methylpyridin-3-yl)-2,4,12,13-tetrahydro-11H-5,7-(azenometheno)dipyrazolo[3,4-b:5′,1′-g][1]oxa[4,6,8]triazacycloundecine], the CLint scaled at 0.05 μM in series [1] was 0.36 L/h/kg. Further, in series [2] (brain, 0.5 h, n=3), the Kp at 0.5 h worked out at 1.1 ± 0.1 and the Kp uu at 0.5 h is 0.52 ± 0.06. For the same molecule, the concentration at 0.5 h in series [2] (brain, 0.5 h, n=3, read-out: Total brain concentration) is 414 ± 97 ng/g. For the same molecule, the concentration at 0.5 h in series [2] (plasma, 0.5 h, n=3, read-out: Total plasma concentration) was determined as 0.362 ± 0.038 µg/mL. Moreover, the CLint scaled at 1 μM in series [3] was 0.43 L/h/kg. In series [4], the “fubrain (% free)” value was found to be 10.4 % free and the “fuplasma (% free)” value came to 22.6 % free.

In series [1], `[2H]C([2H])([2H])Oc1ncc(F)cc1-n1nc2c(c1C)Nc1ncc3c(Cl)nn(c3n1)CCCO2` (single isomer, unassigned) [Example 23, 8-Chloro-2-(5-fluoro-2-(methoxy-d3)pyridin-3-yl)-3-methyl-2,4,12,13-tetrahydro-11H-5,7-(azenometheno)dipyrazolo[3,4-b:5′,1′-g][1]oxa[4,6,8]triazacycloundecine] had a CLint scaled at 0.05 μM of 0.97 L/h/kg. For the same molecule, the CLint scaled at 1 μM in series [3] is 1.43 L/h/kg.

Consider `COc1ncc(F)cc1-n1nc2c(c1C)Nc1ncc3c(Cl)nn(c3n1)CCCO2` [Example 6, 8-Chloro-2-(5-fluoro-2-methoxypyridin-3-yl)-3-methyl-2,4,12,13-tetrahydro-11H-5,7-(azenometheno)dipyrazolo[3,4-b:5′,1′-g][1]oxa[4,6,8]triazacycloundecine], for which the CLint scaled at 0.05 μM in series [1] is 0.86 L/h/kg. In series [2] (brain, n=3), this molecule gave a Kp at 1 h of 3 ± 0.06 and a Kp uu at 1 h of 1.22 ± 0.03. The concentration at 1 h in series [2] (setting [5]) worked out at 205 ± 21 ng/g. For the same molecule, the concentration at 1 h in series [2] (setting [6]) stood at 0.069 ± 0.007 µg/mL. In series [3], this molecule had a CLint scaled at 1 μM of 1.26 L/h/kg. In addition, in series [4], the “fubrain (% free)” value is recorded as 3.7 % free and the “fuplasma (% free)” value came to 8.9 % free.

`Cc1cnc(C)c(-n2nc3c(c2C)Nc2ncc4c(Cl)nn(c4n2)CCCO3)c1` [Example 11, 8-Chloro-2-(2,5-dimethylpyridin-3-yl)-3-methyl-2,4,12,13-tetrahydro-11H-5,7-(azenometheno)dipyrazolo[3,4-b:5′,1′-g][1]oxa[4,6,8]triazacycloundecine] showed a CLint scaled at 0.05 μM in series [1] of under 0.24 L/h/kg. In series [2] (brain, n=3), this molecule showed a Kp at 1 h of 1.1 ± 0.2 and a Kp uu at 1 h of 0.51 ± 0.07. The concentration at 1 h in series [2] (setting [5]) is 649 ± 99 ng/g. In series [2] (setting [6]), the concentration at 1 h turned out to be 0.586 ± 0.082 µg/mL. In series [3], this molecule showed a CLint scaled at 1 μM of 0.74 L/h/kg. In series [4], the “fubrain (% free)” value is recorded as 5.3 % free and the “fuplasma (% free)” value is 11.7 % free.

`Cc1ccc(-n2nc3c(c2C)Nc2ncc4c(Cl)nn(c4n2)CCCO3)c(C)n1` [Example 9, 8-Chloro-2-(2,6-dimethylpyridin-3-yl)-3-methyl-2,4,12,13-tetrahydro-11H-5,7-(azenometheno)dipyrazolo[3,4-b:5′,1′-g][1]oxa[4,6,8]triazacycloundecine] showed a CLint scaled at 0.05 μM in series [1] of 0.97 L/h/kg. For the same molecule, in series [2] (brain, n=3), the Kp at 1 h turned out to be 1.4 ± 0.2 and the Kp uu at 1 h turned out to be 1 ± 0.12. Besides, the concentration at 1 h in series [2] (setting [5]) stood at 906 ± 87 ng/g. Also, in series [2] (setting [6]), the concentration at 1 h worked out at 0.664 ± 0.047 µg/mL. Also, in series [3], the “Hepatic microsomal CLint (L/h/kg)” value is given as “BQL**”. For the same molecule, in series [4], the “fubrain (% free)” value is on record as 7.4 % free and the “fuplasma (% free)” value was 10.2 % free.
